The results in this text go back to patent publication US20250154105A1, “POLYCYCLIC COMPOUND AND USE THEREOF” (TYK MEDICINES, INC., priority 2021, published 2025).

For data set [1], the system named is human pleural mesothelioma cells NCI-H226. The experiment in a line: Cell anti-proliferation experiment (CCK8), NCI-H226. It counts as cell-based. The gist of the method:
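Viability was measured by CCK-8 (3 h, A450) after 3-day treatment with 0.15–333.33 nM compound in 0.1% DMSO medium. Curve-fitted IC50 was based on viability normalised to no-drug and cell-free controls.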

Data set [2] in a line: Rat pharmacokinetic experiment. As to conditions: po, male SD rats, gavage (p.o.), 10 mg/kg, plasma. In kind it is in vivo. The source says: TEST EXAMPLE 3 PHARMACOKINETIC EXPERIMENT OF COMPOUNDS
Pharmacokinetic test of compounds T-32/T-105/T-253/T-272/T-273/T-277 of the present invention.
Experimental Protocol of Rat Pharmacokinetics
• (1) Required animals: healthy adult SD rats, male, 3 rats, 6-8 weeks old; weighing 200-300 g. • (2) Required equipments: analytical balance, animal weight scale, magnetic stirrer, refrigerated centrifuge, single-channel manual pipettor, etc. • (3) Required reagents: EDTA-Na2 anticoagulant, etc. 11.2 g of EDTA-Na2 was weighed and placed in a reagent flask, 100 mL of normal saline was added, and the flask was shook to completely dissolve it. After the preparation was completed, it was divided into 1.5 mL centrifuge tubes with 20 uL each for whole blood sample collection. • (3) About 10 mg of the sample to be tested was accurately weighed, 5% DMSO after conversion was added to dissolve, then 30% PEG400 and 65% (10% Hp-β-CD in PBS) were added for sonication, and vortex-mixed evenly to obtain a solution with a concentration of 1 mg/mL which is freshly prepared before use. • (4) 0.1 mL of sample was taken into a 1.5 mL centrifuge tube and stored at −80° C. for concentration analysis of drug administration solution. • (5) Animals were kept in rat cages, and fasted (not less than 10 h) from the day before the test(but water was allowed). The animals were separately weighed and marked at the tail on the day of the test. Blank blood was collected before administration. The blood was collected from tail vein. • (6) Route of administration: gavage (p.o.); dosage: 10 mg/kg; administration volume: 10 mL/kg. • (7) Operation process: Use the left hand with anti-bite gloves to catch the rat, make it stand upright, stretch the 16th gastric lavage needle from the throat of the mouth, insert the needle when feeling out no obvious resistance, and then inject the drug into the stomach. • (8) 0.2 ml of whole blood was collected from the tested animals and added into EDTA-Na2 anticoagulant tubes before administration and 0.5 h, 1 h, 2 h, 4 h, 6 h, 8 h, 12 h and 24 h after administration respectively. The tubes were reversed up and down for 3-4 times and mixed evenly, centrifuged at 4° C. at 10000 g for 5 min to separate plasma, and stored at −80° C. for testing. The blood was collected from tail vein. • (9) LC-MS/MS method was established to determine the concentration of original drug in plasma, the blood drug concentration-time curve was drawn, and the main pharmacokinetic parameters were calculated by non-compartment model. • (10) Pharmacokinetic parameters of T-32/T-105/T-253/T-272/T-273/T-277 were shown below in Table 2.

The structures appear in SMILES notation.

In the case of `CNS(=O)(=O)c1ccc2c(c1)c1cn(C)nc1c(=O)n2-c1ccc(C(F)(F)F)cc1` [Example T-32], the IC50 (in general, the concentration needed to halve the response being measured) in data set [1] was not above 1000 nM. Besides, in data set [2], the exposure AUC(0-t) (usually the area under the concentration-time curve up to a stated or last time point) is 22200 ng·h/mL; the Cmax (usually the maximum level reached in the sampled fluid or tissue) was determined as 2220 ng/mL; the MRT last (commonly a mean duration of stay, worked out from the concentration-time curve) was determined as 6.88 h; the Tmax (commonly the time at which the peak concentration occurs) turned out to be 2.5 h.

For the compound `C[C@H](NC(=O)c1ccc2c(c1)c1nn(C)cc1c(=O)n2-c1ccc(C(F)(F)F)cc1)c1ccccn1` [Example T-105], the IC50 in data set [1] is not above 1000 nM. In addition, in data set [2], the area under the curve AUC(0-t) was found to be 53900 ng·h/mL, the highest level (Cmax) was 3870 ng/mL, the MRT last is 9.48 h and the time to peak (Tmax) stood at 4 h.

The compound `C[C@H](NC(=O)c1ccc2c(c1)c1cnccc1c(=O)n2-c1ccc(C(F)(F)F)cc1)c1ccccn1` [Example T-253] had an IC50 in data set [1] not above 1000 nM. For the same compound, in data set [2], the AUC(0-t) stood at 39200 ng·h/mL, the concentration peaked (Cmax) at 2640 ng/mL, the mean residence time (MRT last) is 9.78 h and the Tmax was 4.7 h.

`C[C@H](NC(=O)c1ccc2c(c1)c1ccccc1c(=O)n2-c1ccc(C(F)(F)F)cc1)c1ccccn1` [Example T-272] displayed an IC50 in data set [1] not above 1000 nM. In data set [2], the AUC(0-t) amounted to 21200 ng·h/mL, the peak concentration (Cmax) worked out at 1410 ng/mL, the MRT last turned out to be 9.96 h and the Tmax came to 5.3 h.

Take `Cc1cc(=O)n(-c2ccc(C(F)(F)F)cc2)c2ccc(C(=O)N[C@@H](C)c3ccccn3)cc12` [Example T-277]: the IC50 in data set [1] was not above 1000 nM. In addition, in data set [2], the exposure AUC(0-t) amounted to 26900 ng·h/mL, the peak concentration (Cmax) came out at 2650 ng/mL, the MRT last came out at 7.28 h and the Tmax was 4.7 h.
